Data as given in ChEMBL document CHEMBL1135281, “Solid-phase synthesis and pharmacological evaluation of analogues of PhTX-12-A potent and selective nicotinic acetylcholine receptor antagonist” (Bioorg Med Chem Lett, 2002).

Experiments:
[1] = target: T1, Acetylcholine receptor subunit delta (Homo sapiens, UniProt Q07001); test: Compound was evaluated for inhibitory activity against human embryonic muscle type Nicotinic acetylcholine receptor specifically delta-subunit expressed in TE-671 cell (at holding potential -50 mV); type: cell-based
T1 sequence (Q07001 whole entry): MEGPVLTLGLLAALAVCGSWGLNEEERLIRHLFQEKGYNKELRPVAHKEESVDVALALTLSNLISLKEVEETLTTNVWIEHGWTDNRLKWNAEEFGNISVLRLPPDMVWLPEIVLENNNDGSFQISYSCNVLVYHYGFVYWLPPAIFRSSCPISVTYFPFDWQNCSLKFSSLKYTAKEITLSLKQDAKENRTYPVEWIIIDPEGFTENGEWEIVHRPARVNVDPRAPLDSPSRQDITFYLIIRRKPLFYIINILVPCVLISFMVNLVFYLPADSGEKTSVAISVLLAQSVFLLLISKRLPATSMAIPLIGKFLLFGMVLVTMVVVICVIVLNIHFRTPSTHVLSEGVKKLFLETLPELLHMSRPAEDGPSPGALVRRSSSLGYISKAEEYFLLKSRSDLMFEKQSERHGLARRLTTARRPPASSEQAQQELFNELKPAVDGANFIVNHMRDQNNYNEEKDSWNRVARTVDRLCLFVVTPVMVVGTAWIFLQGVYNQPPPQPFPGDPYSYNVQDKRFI

[2] = target: T1, Acetylcholine receptor subunit delta; test: Compound was evaluated for inhibitory activity against human embryonic muscle type Nicotinic acetylcholine receptor specifically delta-subunit expressed in TE-671 cell (at holding potential -100 mV); type: cell-based

Compound	IC50 [1] [µM]	IC50 [2] [µM]
CCCC(=O)N[C@@H](Cc1ccc(O)cc1)C(=O)NCCCCCCCCCCCCN	1.53	0.93
CCCC(=O)N[C@@H](Cc1ccc(O)cc1)C(=O)NCCCCCCCCCCCN	0.58	0.46
CCCC(=O)N[C@@H](Cc1ccc(O)cc1)C(=O)NCCCCCCCN	10.5	5.44
CCCC(=O)N[C@@H](Cc1ccc(O)cc1)C(=O)NCCCCCCCCN	9.76	5.03
CCCC(=O)N[C@@H](Cc1ccc(O)cc1)C(=O)NCCCCCCCCCCN	8.66	~10
CCCC(=O)N[C@@H](Cc1ccc(O)cc1)C(=O)NCCCCCCCCCN	13.3	15.1
CCCC(=O)N[C@@H](Cc1ccc(O)cc1)C(=O)NCCCNCCCCNCCCN [PHILANTHOTOXIN 343]	–	75
